Values after ≈ are worked out from the molar mass of the structure shown. Structures can show the parent of a compound that is named as a salt. Where two headings read alike, the source gives them in different places.
Tests used:
Assay in all cases: In vitro antibacterial activity on pathogenic bacteria for fish (agar MIC, Test Example 1)
Format in all cases: cell-based
[1] = test system: Aeromonas hydrophila; conditions: 20 h; for MIC (minimum growth-inhibition concentration): Mueller-Hinton agar; for MIC: Aeromonas hydrophila
Description: (§1) In vitro antibacterial activity on pathogenic-bacteria for fish
(§2) Each of the test strains was cultured over-night, and each culture broth (containing about 10^6 cells/ml) was innoculated in Mueller-Hinton agar (DIFCO) supplied with 1.0-2.0% sodium chloride and containing the test compound at each specified concentration.

[2] = test system: Pasteurella piscicida; conditions: 20 h; for MIC (minimum growth-inhibition concentration): Mueller-Hinton agar; for MIC: Photobacterium damselae
Description: as §1, §2

[3] = test system: Vibrio anguillarum; conditions: 20 h, 25-30 °C; for MIC (minimum growth-inhibition concentration): Mueller-Hinton agar; for MIC: Vibrio anguillarum, read-out: MIC (minimum growth-inhibition concentration)
Description: as §1, §2

[4] = Aeromonas hydrophila strain C 44, 25-30 °C
[5] = Aeromonas hydrophila strain KA8301, 25-30 °C
[6] = Aeromonas hydrophila strain KA8414, 25-30 °C
[7] = Aeromonas hydrophila strain KA8416, 25-30 °C
[8] = Aeromonas hydrophila strain M 183, 25-30 °C
[9] = Pasteurella piscicida strain EH8304, 25-30 °C
[10] = Pasteurella piscicida strain EH8309, 25-30 °C
[11] = Pasteurella piscicida strain EH8312, 25-30 °C
[12] = Pasteurella piscicida strain EH8313, 25-30 °C
[13] = Pasteurella piscicida strain NG8319, 25-30 °C
[14] = Vibrio anguillarum strain NA8340
[15] = Vibrio anguillarum strain NA8341
[16] = Vibrio anguillarum strain NA8346
[17] = Vibrio anguillarum strain NA8347
[18] = Vibrio anguillarum strain NH8410
[19] = Aeromonas hydrophila strain C 44, Mueller-Hinton agar, 25-30 °C, read-out: MIC (minimum growth-inhibition concentration)
[20] = Aeromonas hydrophila strain KA8301, Mueller-Hinton agar, 25-30 °C, read-out: MIC (minimum growth-inhibition concentration)
[21] = Aeromonas hydrophila strain KA8414, Mueller-Hinton agar, 25-30 °C, read-out: MIC (minimum growth-inhibition concentration)
[22] = Aeromonas hydrophila strain KA8416, Mueller-Hinton agar, 25-30 °C, read-out: MIC (minimum growth-inhibition concentration)
[23] = Aeromonas hydrophila strain M 183, Mueller-Hinton agar, 25-30 °C, read-out: MIC (minimum growth-inhibition concentration)
[24] = Pasteurella piscicida strain EH8304, Mueller-Hinton agar, 25-30 °C, read-out: MIC (minimum growth-inhibition concentration)
[25] = Pasteurella piscicida strain EH8309, Mueller-Hinton agar, 25-30 °C, read-out: MIC (minimum growth-inhibition concentration)
[26] = Pasteurella piscicida strain EH8312, Mueller-Hinton agar, 25-30 °C, read-out: MIC (minimum growth-inhibition concentration)
[27] = Pasteurella piscicida strain EH8313, Mueller-Hinton agar, 25-30 °C, read-out: MIC (minimum growth-inhibition concentration)
[28] = Pasteurella piscicida strain NG8319, Mueller-Hinton agar, 25-30 °C, read-out: MIC (minimum growth-inhibition concentration)
[29] = Vibrio anguillarum strain NA8340, Mueller-Hinton agar
[30] = Vibrio anguillarum strain NA8341, Mueller-Hinton agar
[31] = Vibrio anguillarum strain NA8346, Mueller-Hinton agar
[32] = Vibrio anguillarum strain NA8347, Mueller-Hinton agar
[33] = Vibrio anguillarum strain NH8410, Mueller-Hinton agar

CCN1CCN(c2cc3c(cc2F)c(=O)c(C(=O)O)cn3C2CC2)CC1 [Compound G, embonate of 1-cyclopropyl-6-fluoro-1,4-dihydro-4-oxo-7-(4-ethylpiperazino)-quinoline-3-carboxylic acid]
MIC (minimum growth-inhibition concentration) [1, 4]: 0.05 µg/mL (≈ 0.139 µM)
MIC (minimum growth-inhibition concentration) [1, 5]: 0.05 µg/mL (≈ 0.139 µM)
MIC (minimum growth-inhibition concentration) [1, 6]: 0.05 µg/mL (≈ 0.139 µM)
MIC (minimum growth-inhibition concentration) [1, 7]: 0.05 µg/mL (≈ 0.139 µM)
MIC (minimum growth-inhibition concentration) [1, 8]: 0.05 µg/mL (≈ 0.139 µM)
MIC (minimum growth-inhibition concentration) [2, 9]: 0.1 µg/mL (≈ 0.278 µM)
MIC (minimum growth-inhibition concentration) [2, 10]: 0.1 µg/mL (≈ 0.278 µM)
MIC (minimum growth-inhibition concentration) [2, 11]: 0.05 µg/mL (≈ 0.139 µM)
MIC (minimum growth-inhibition concentration) [2, 12]: 0.05 µg/mL (≈ 0.139 µM)
MIC (minimum growth-inhibition concentration) [2, 13]: 0.01 µg/mL (≈ 0.0278 µM)
MIC (minimum growth-inhibition concentration) [3, 14]: 0.05 µg/mL (≈ 0.139 µM)
MIC (minimum growth-inhibition concentration) [3, 15]: 0.05 µg/mL (≈ 0.139 µM)
MIC (minimum growth-inhibition concentration) [3, 16]: 0.05 µg/mL (≈ 0.139 µM)
MIC (minimum growth-inhibition concentration) [3, 17]: 0.05 µg/mL (≈ 0.139 µM)
MIC (minimum growth-inhibition concentration) [3, 18]: 0.05 µg/mL (≈ 0.139 µM)

O=C(O)c1cn(C2CC2)c2cc(N3CCN(CCO)CC3)c(F)cc2c1=O [Compound F, hydrochloride of 1-cyclopropyl-6-fluoro-1,4-dihydro-4-oxo-7-(4-β-hydroxyethyl-piperazino)-quinoline-3-carboxylic acid]
MIC [1, 19]: < 0.025 µg/mL
MIC [1, 20]: 0.05 µg/mL
MIC [1, 21]: < 0.025 µg/mL
MIC [1, 22]: < 0.025 µg/mL
MIC [1, 23]: < 0.025 µg/mL
MIC [2, 24]: 0.1 µg/mL
MIC [2, 25]: 0.1 µg/mL
MIC [2, 26]: 0.1 µg/mL
MIC [2, 27]: 0.1 µg/mL
MIC [2, 28]: 0.1 µg/mL
MIC [3, 29]: 0.1 µg/mL
MIC [3, 30]: 0.1 µg/mL
MIC [3, 31]: 0.1 µg/mL
MIC [3, 32]: 0.05 µg/mL
MIC [3, 33]: 0.1 µg/mL

O=C(O)c1cn(C2CC2)c2cc(N3CCNCC3)c(F)cc2c1=O [Compound A, hydrochloride of 1-cyclopropyl-6-fluoro-1,4-dihydro-4-oxo-7-piperazino-quinoline-3-carboxylic acid]
MIC ([1]; read-out: MIC (minimum growth-inhibition concentration), Aeromonas hydrophila strain C 44, Mueller-Hinton agar, 25-30 °C): < 0.025 µg/mL
MIC ([1]; read-out: MIC (minimum growth-inhibition concentration), Aeromonas hydrophila strain KA8301, Mueller-Hinton agar, 25-30 °C): < 0.025 µg/mL
MIC ([1]; read-out: MIC (minimum growth-inhibition concentration), Aeromonas hydrophila strain KA8414, Mueller-Hinton agar, 25-30 °C): < 0.025 µg/mL
MIC ([1]; read-out: MIC (minimum growth-inhibition concentration), Aeromonas hydrophila strain KA8416, Mueller-Hinton agar, 25-30 °C): < 0.025 µg/mL
MIC ([1]; read-out: MIC (minimum growth-inhibition concentration), Aeromonas hydrophila strain M 183, Mueller-Hinton agar, 25-30 °C): < 0.025 µg/mL
MIC ([2]; read-out: MIC (minimum growth-inhibition concentration), Pasteurella piscicida strain EH8304, Mueller-Hinton agar, 25-30 °C): 0.05 µg/mL
MIC ([2]; read-out: MIC (minimum growth-inhibition concentration), Pasteurella piscicida strain EH8309, Mueller-Hinton agar, 25-30 °C): < 0.025 µg/mL
MIC ([2]; read-out: MIC (minimum growth-inhibition concentration), Pasteurella piscicida strain EH8312, Mueller-Hinton agar, 25-30 °C): 0.05 µg/mL
MIC ([2]; read-out: MIC (minimum growth-inhibition concentration), Pasteurella piscicida strain NG8319, Mueller-Hinton agar, 25-30 °C): < 0.025 µg/mL
MIC [3, 29]: < 0.025 µg/mL
MIC [3, 30]: < 0.025 µg/mL
MIC [3, 31]: < 0.025 µg/mL
MIC [3, 32]: < 0.025 µg/mL
MIC [3, 33]: < 0.025 µg/mL

O=C(O)c1cn(C2CC2)c2cc(N3CCNCC3)c(F)cc2c1=O [Compound B, monohydrate of hydrochloride of 1-cyclopropyl-6-fluoro-1,4-dihydro-4-oxo-7-piperazino-quinoline-3-carboxylic acid]
MIC (minimum growth-inhibition concentration) [1, 4]: < 0.0125 µg/mL
MIC (minimum growth-inhibition concentration) [1, 5]: < 0.0125 µg/mL
MIC (minimum growth-inhibition concentration) [1, 6]: < 0.0125 µg/mL
MIC (minimum growth-inhibition concentration) [1, 7]: < 0.0125 µg/mL
MIC (minimum growth-inhibition concentration) [1, 8]: < 0.0125 µg/mL
MIC (minimum growth-inhibition concentration) [2, 9]: 0.025 µg/mL
MIC (minimum growth-inhibition concentration) [2, 10]: < 0.0125 µg/mL
MIC (minimum growth-inhibition concentration) [2, 11]: 0.025 µg/mL
MIC (minimum growth-inhibition concentration) [2, 13]: 0.025 µg/mL
MIC ([2]; read-out: MIC (minimum growth-inhibition concentration), Pasteurella piscicida strain EH8313, Mueller-Hinton agar, 25-30 °C): 0.025 µg/mL
MIC (minimum growth-inhibition concentration) [3, 14]: 0.025 µg/mL
MIC (minimum growth-inhibition concentration) [3, 15]: 0.025 µg/mL
MIC (minimum growth-inhibition concentration) [3, 16]: 0.025 µg/mL
MIC (minimum growth-inhibition concentration) [3, 17]: 0.025 µg/mL
MIC (minimum growth-inhibition concentration) [3, 18]: 0.025 µg/mL

CCN1CCN(c2cc3c(cc2F)c(=O)c(C(=O)O)cn3C2CC2)CC1 [Compound E, dihydrate of hydrochloride of 1-cyclopropyl-6-fluoro-1,4-dihydro-4-oxo-7-(4-ethylpiperazino)-quinoline-3-carboxylic acid]
MIC (minimum growth-inhibition concentration) [1, 4]: < 0.025 µg/mL
MIC (minimum growth-inhibition concentration) [1, 5]: 0.05 µg/mL
MIC (minimum growth-inhibition concentration) [1, 6]: < 0.025 µg/mL
MIC (minimum growth-inhibition concentration) [1, 7]: < 0.025 µg/mL
MIC (minimum growth-inhibition concentration) [1, 8]: < 0.025 µg/mL
MIC (minimum growth-inhibition concentration) [2, 9]: 0.05 µg/mL
MIC (minimum growth-inhibition concentration) [2, 10]: 0.05 µg/mL
MIC (minimum growth-inhibition concentration) [2, 11]: 0.05 µg/mL
MIC (minimum growth-inhibition concentration) [2, 12]: 0.05 µg/mL
MIC (minimum growth-inhibition concentration) [2, 13]: 0.05 µg/mL
MIC (minimum growth-inhibition concentration) [3, 14]: 0.05 µg/mL
MIC (minimum growth-inhibition concentration) [3, 15]: 0.05 µg/mL
MIC (minimum growth-inhibition concentration) [3, 16]: 0.05 µg/mL
MIC (minimum growth-inhibition concentration) [3, 17]: 0.05 µg/mL
MIC (minimum growth-inhibition concentration) [3, 18]: 0.05 µg/mL

CCOC(=O)c1cn(C2CC2)c2cc(N3CCN(CC)CC3)c(F)cc2c1=O [Compound H, ethyl 1-cyclopropyl-6-fluoro-1,4-dihydro-4-oxo-7-(4-ethylpiperazino)-quinoline-3-carboxylate]
MIC [1, 19]: 50 µg/mL (≈ 129 µM)
MIC [1, 20]: 12.5 µg/mL (≈ 32.3 µM)
MIC [1, 21]: 25 µg/mL (≈ 64.5 µM)
MIC [1, 22]: 12.5 µg/mL (≈ 32.3 µM)
MIC [1, 23]: 12.5 µg/mL (≈ 32.3 µM)
MIC [2, 24]: 25 µg/mL (≈ 64.5 µM)
MIC [2, 25]: 25 µg/mL (≈ 64.5 µM)
MIC [2, 26]: 12.5 µg/mL (≈ 32.3 µM)
MIC [2, 27]: 12.5 µg/mL (≈ 32.3 µM)
MIC [2, 28]: 25 µg/mL (≈ 64.5 µM)
MIC [3, 29]: 25 µg/mL (≈ 64.5 µM)
MIC [3, 30]: 25 µg/mL (≈ 64.5 µM)
MIC [3, 31]: 12.5 µg/mL (≈ 32.3 µM)
MIC [3, 32]: 12.5 µg/mL (≈ 32.3 µM)
MIC [3, 33]: 12.5 µg/mL (≈ 32.3 µM)

CN1CCN(c2cc3c(cc2F)c(=O)c(C(=O)O)cn3C2CC2)CC1 [Compound C, hydrochloride of 1-cyclopropyl-6-fluoro-1,4-dihydro-4-oxo-7-(4-methylpiperazino)quinoline-3-carboxylic acid]
MIC [1, 19]: < 0.025 µg/mL
MIC [1, 20]: < 0.025 µg/mL
MIC [1, 21]: < 0.025 µg/mL
MIC [1, 22]: < 0.025 µg/mL
MIC [1, 23]: < 0.025 µg/mL
MIC [2, 24]: 0.05 µg/mL
MIC [2, 25]: 0.05 µg/mL
MIC [2, 26]: 0.05 µg/mL
MIC [2, 27]: 0.05 µg/mL
MIC [2, 28]: 0.05 µg/mL
MIC [3, 29]: < 0.025 µg/mL
MIC [3, 30]: < 0.025 µg/mL
MIC [3, 31]: < 0.025 µg/mL
MIC [3, 32]: < 0.025 µg/mL
MIC [3, 33]: < 0.025 µg/mL
